Measured values as given in US20010053773A1, “Method for inhibiting the growth of cancers” (The Procter & Gamble Company, priority 1998, published 2001).

Tested on: breast cancer
Assay: mouse model for breast cancer, tumor mass and regrowth
Assay type: in vivo
Settings: for tumor regrowth / change in tumor mass on estrogen stimulation: stimulated with estrogen at day 115; for tumor size and regrowth: followed to 180 days
Method: Carbendazim is administered to the mice at 4000, 5000, and 6000 mg/kg of body weight in a separate leg.

| Compound | tumor regrowth (cytoxan treated control, no carbendazim) | tumor regrowth / change in tumor mass on estrogen stimulation | tumor size and regrowth (carbendazim at 4000, 5000 and 6000 mg/kg given after 130 days to mice that had been treated with cytoxan) | dose dependence of tumor growth (carbendazim at 4000, 5000 and 6000 mg/kg of body weight) | tumor size and regrowth (carbendazim at 4000, 5000 and 6000 mg/kg of body weight in a separate leg) |
| --- | --- | --- | --- | --- | --- |
| O=P1(N(CCCl)CCCl)NCCCO1 (stereo not drawn) [cytoxan] | tumor regrowth after 100 days | rapid regrowth | – | – | – |
| COC(=O)Nc1nc2ccccc2[nH]1 [Carbendazim, 2-methoxycarbonylamino-benzimidazole] | – | no significant change in tumor mass | The tumor continued to decrease in size and its regrowth was limited even after 180 days | dose dependent | The tumor continued to decrease in size and its regrowth was limited even after 180 days |
